Among the test systems are DLD-1 colon; DMS 114 small cell lung; DMS 273 small cell lung; HOP-18 NSCLC; KM20L2 colon; LXFL 529 NSCLC; SNB-78 CNS; XF 498 CNS; P388 leukemia; P388/ADR leukemia; SN12K1 renal.
Common to all, as to test: NCI tumour cell line growth inhibition, 48 h

SMILES strings stand for the structures. Where “and” joins values, the source holds several entries; their conditions need not be identical. Equal entries are not always repeated.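 Protocol summary: plate cells (96-well), add compound at 5 concentrations, incubate 48 h, interpolate endpoints linearly. At the GI50, growth is halved. TGI denotes the concentration required for complete inhibition of growth.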

On to `C=C(CN(C)C)C(=O)c1ccccc1OC`, for which the TGI in the assay on DLD-1 colon was found to be 14200 nM; in the assay with DMS 114 small cell lung, 42500 nM; in the assay with DMS 273 small cell lung, 34000 nM; with HOP-18 NSCLC, 20200 nM; in the assay on KM20L2 colon, 50800 nM; with LXFL 529 NSCLC, 11500 nM. For the same compound, the TGI in the assay with SNB-78 CNS stood at 62800 nM; with XF 498 CNS, 32300 nM.
As for `N#CC1(CCCI)CCCC1`, the TGI was above 100000 nM in the assay on DLD-1 colon; 25300 nM in the assay with DMS 114 small cell lung; above 100000 nM in the assay on DMS 273 small cell lung; 36300 nM with HOP-18 NSCLC; above 100000 nM with KM20L2 colon; above 100000 nM in the assay with LXFL 529 NSCLC. Also, the TGI in the assay with SNB-78 CNS was 38300 nM; with XF 498 CNS, 47300 nM.
As to `CC[C@@]1(O)CC(OC2CC(N3CCOCC3)C(O)C(C)O2)c2c(O)c3c(c(O)c2[C@H]1O)C(=O)c1cccc(O)c1C3=O` (some centres undefined), the GI50 in the assay on DLD-1 colon is 32.4 nM; in the assay with DMS 114 small cell lung it was 52.5 nM; in the assay with DMS 273 small cell lung, 18 nM; in the assay with KM20L2 colon, 102 nM; with P388 leukemia, 0.000179 nM; in the assay on P388/ADR leukemia, 4.4 nM. Further, the GI50 in the assay on SN12K1 renal was 15.3 nM and 10.2 nM; in the assay with SNB-78 CNS it was 640 nM; in the assay on XF 498 CNS, 34.1 nM. Further, the TGI in the assay with DLD-1 colon was 2780 nM and 3200 nM; with DMS 114 small cell lung it was 968 nM and 1080 nM; in the assay on DMS 273 small cell lung, 1100 nM and 393 nM; in the assay on KM20L2 colon, 3840 nM and 1860 nM; with P388 leukemia, 1080 nM and 799 nM; with P388/ADR leukemia, 2940 nM and 770 nM. Also, the TGI is 403 nM and 297 nM with SN12K1 renal; 2830 nM and 24300 nM in the assay on SNB-78 CNS; 278 nM and 362 nM in the assay on XF 498 CNS.

The values above are taken from PubChem BioAssay (NCI).
